Several values for one entry are separate records, joined by “and”; a condition that tells them apart may be missing. Equal values may be shown once. Toxic doses and inconclusive results are not listed. Cut-off read from the data, not from the text of the source: active = T/C of 150% or more; inactive = T/C below 125%.
Tested on: L1210 leukemia ip in BDF1 mice, survival T/C
Experiment: NCI In Vivo Anticancer Drug Screen. Data for tumor model L1210 Leukemia (intraperitoneal) in B6D2F1 (BDF1) mice
Conditions: higher = longer survival
Outline: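 Read-out is survival time, reported as the treated-group measurement over the vehicle-control measurement.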

Measured: T/C

N=[N+]=CC(=O)OCC(N)C(=O)O (stereo unspecified)
inactive: endpoint: mean survival time, dose: 0.06 mg/kg/injection, schedule: Q#A X Z (ip), vehicle: saline 117 % of control | endpoint: mean survival time, dose: 0.43 mg/kg/injection, schedule: Q01DX009 (ip), vehicle: saline 111 % of control | endpoint: mean survival time, dose: 0.5 mg/kg/injection, schedule: Q01DX010 (ip), vehicle: saline 119 % of control | endpoint: mean survival time, dose: 0.5 mg/kg/injection, schedule: Q01DX Z (ip), vehicle: saline 117 % of control and 118 % of control | endpoint: mean survival time, dose: 0.85 mg/kg/injection, schedule: Q01DX009 (ip), vehicle: saline 105 % of control and 111 % of control | endpoint: mean survival time, dose: 1.0 mg/kg/injection, schedule: Q01DX Z (ip), vehicle: saline 115 % of control | endpoint: mean survival time, dose: 1.3 mg/kg/injection, schedule: Q04DX002 (ip), vehicle: saline 98 % of control and 112 % of control | endpoint: mean survival time, dose: 1.7 mg/kg/injection, schedule: Q01DX009 (ip), vehicle: saline 115 % of control | endpoint: mean survival time, dose: 1.8 mg/kg/injection, schedule: Q01DX Z (ip), vehicle: carboxymethylcellulose (CMC) 108 % of control and 120 % of control | endpoint: mean survival time, dose: 2.0 mg/kg/injection, schedule: Q01DX005 (ip), vehicle: saline 114 % of control | endpoint: mean survival time, dose: 2.0 mg/kg/injection, schedule: Q01DX Z (oral), vehicle: saline 110 % of control | endpoint: mean survival time, dose: 2.0 mg/kg/injection, schedule: Q01DX Z (sc), vehicle: saline 118 % of control | endpoint: mean survival time, dose: 2.5 mg/kg/injection, schedule: Q04DX002 (ip), vehicle: saline 106 % of control and 110 % of control | endpoint: mean survival time, dose: 3.5 mg/kg/injection, schedule: Q07DX003 (ip), vehicle: saline 115 % of control | endpoint: mean survival time, dose: 4.0 mg/kg/injection, schedule: Q01DX009 (ip), vehicle: saline 121 % of control | endpoint: mean survival time, dose: 4.0 mg/kg/injection, schedule: Q01DX Z (im), vehicle: saline 118 % of control | endpoint: mean survival time, dose: 4.0 mg/kg/injection, schedule: Q01DX Z (sc), vehicle: saline 119 % of control | endpoint: mean survival time, dose: 4.0 mg/kg/injection, schedule: Q03HX024 (oral), vehicle: saline 117 % of control | endpoint: mean survival time, dose: 4.0 mg/kg/injection, schedule: Q## X003 (ip), vehicle: saline 106 % of control | endpoint: mean survival time, dose: 5.0 mg/kg/injection, schedule: Q04DX002 (ip), vehicle: saline 117 % of control and 121 % of control | endpoint: mean survival time, dose: 7.0 mg/kg/injection, schedule: Q07DX003 (ip), vehicle: saline 117 % of control | endpoint: mean survival time, dose: 8.0 mg/kg/injection, schedule: Q01DX009 (ip), vehicle: saline 121 % of control | endpoint: mean survival time, dose: 8.0 mg/kg/injection, schedule: Q01DX009 (oral), vehicle: saline 105 % of control and 107 % of control | endpoint: mean survival time, dose: 8.0 mg/kg/injection, schedule: Q04DX003 (ip), vehicle: saline 113 % of control | endpoint: mean survival time, dose: 8.0 mg/kg/injection, schedule: Q## X002 (ip), vehicle: saline 102 % of control | endpoint: mean survival time, dose: 8.0 mg/kg/injection, schedule: Q## X003 (ip), vehicle: saline 107 % of control and 113 % of control | endpoint: mean survival time, dose: 8.0 mg/kg/injection, schedule: Q## X003 (oral), vehicle: saline 97 % of control and 101 % of control | endpoint: mean survival time, dose: 8.0 mg/kg/injection, schedule: Q## X024 (oral), vehicle: saline 106 % of control | endpoint: mean survival time, dose: 14.0 mg/kg/injection, schedule: Q01DX001 (ip), vehicle: saline 120 % of control and 121 % of control | endpoint: mean survival time, dose: 14.0 mg/kg/injection, schedule: Q07DX003 (ip), vehicle: saline 117 % of control | endpoint: mean survival time, dose: 16.0 mg/kg/injection, schedule: Q01DX001 (ip), vehicle: saline 108 % of control | endpoint: mean survival time, dose: 16.0 mg/kg/injection, schedule: Q01DX001 (sc), vehicle: saline 98 % of control | endpoint: mean survival time, dose: 16.0 mg/kg/injection, schedule: Q01DX006 (iv), vehicle: saline 107 % of control | endpoint: mean survival time, dose: 16.0 mg/kg/injection, schedule: Q04DX003 (ip), vehicle: saline 112 % of control | endpoint: mean survival time, dose: 16.0 mg/kg/injection, schedule: Q04DX003 (oral), vehicle: saline 101 % of control and 104 % of control | endpoint: mean survival time, dose: 16.0 mg/kg/injection, schedule: Q## X002 (ip), vehicle: saline 103 % of control | endpoint: mean survival time, dose: 16.0 mg/kg/injection, schedule: Q## X003 (ip), vehicle: saline 116 % of control | endpoint: mean survival time, dose: 16.0 mg/kg/injection, schedule: Q## X003 (oral), vehicle: saline 111 % of control and 113 % of control | endpoint: mean survival time, dose: 16.0 mg/kg/injection, schedule: Q## X024 (oral), vehicle: saline 97 % of control and 104 % of control | endpoint: mean survival time, dose: 18.0 mg/kg/injection, schedule: Q01DX014 (ip), vehicle: saline 117 % of control | endpoint: mean survival time, dose: 27.0 mg/kg/injection, schedule: Q01DX001 (ip), vehicle: saline 104 % of control | endpoint: mean survival time, dose: 28.0 mg/kg/injection, schedule: Q01DX001 (ip), vehicle: saline 120 % of control | endpoint: mean survival time, dose: 28.0 mg/kg/injection, schedule: Q07DX003 (ip), vehicle: saline 120 % of control | endpoint: mean survival time, dose: 32.0 mg/kg/injection, schedule: Q01DX001 (ip), vehicle: saline 111 % of control | endpoint: mean survival time, dose: 32.0 mg/kg/injection, schedule: Q01DX001 (sc), vehicle: saline 105 % of control | endpoint: mean survival time, dose: 32.0 mg/kg/injection, schedule: Q01DX009 (ip), vehicle: saline 102 % of control and 119 % of control | endpoint: mean survival time, dose: 32.0 mg/kg/injection, schedule: Q01DX009 (sc), vehicle: saline 109 % of control | endpoint: mean survival time, dose: 32.0 mg/kg/injection, schedule: Q01DX Z (ip), vehicle: saline 95 % of control | endpoint: mean survival time, dose: 32.0 mg/kg/injection, schedule: Q01DX Z (sc), vehicle: saline 118 % of control | endpoint: mean survival time, dose: 32.0 mg/kg/injection, schedule: Q04DX003 (ip), vehicle: saline 115 % of control | endpoint: mean survival time, dose: 32.0 mg/kg/injection, schedule: Q04DX003 (oral), vehicle: saline 110 % of control | endpoint: mean survival time, dose: 32.0 mg/kg/injection, schedule: Q## X002 (ip), vehicle: saline 120 % of control | endpoint: mean survival time, dose: 32.0 mg/kg/injection, schedule: Q## X003 (ip), vehicle: saline 117 % of control | endpoint: mean survival time, dose: 32.0 mg/kg/injection, schedule: Q## X003 (oral), vehicle: saline 109 % of control and 120 % of control | endpoint: mean survival time, dose: 32.0 mg/kg/injection, schedule: Q## X024 (oral), vehicle: saline 121 % of control | endpoint: mean survival time, dose: 35.0 mg/kg/injection, schedule: Q02DX010 (ip), vehicle: other 95 % of control | endpoint: mean survival time, dose: 36.0 mg/kg/injection, schedule: Q02DX010 (ip), vehicle: other 110 % of control | endpoint: mean survival time, dose: 40.0 mg/kg/injection, schedule: Q01DX001 (ip), vehicle: saline 112 % of control | endpoint: mean survival time, dose: 40.0 mg/kg/injection, schedule: Q01DX Z (ip), vehicle: saline 99 % of control | endpoint: mean survival time, dose: 52.0 mg/kg/injection, schedule: Q02DX010 (ip), vehicle: carboxymethylcellulose (CMC) 107 % of control | endpoint: mean survival time, dose: 54.0 mg/kg/injection, schedule: Q02DX010 (ip), vehicle: other 106 % of control | endpoint: mean survival time, dose: 60.0 mg/kg/injection, schedule: Q01DX001 (ip), vehicle: saline 121 % of control | endpoint: mean survival time, dose: 64.0 mg/kg/injection, schedule: Q01DX001 (ip), vehicle: saline 110 % of control | endpoint: mean survival time, dose: 64.0 mg/kg/injection, schedule: Q01DX001 (oral), vehicle: saline 103 % of control | endpoint: mean survival time, dose: 64.0 mg/kg/injection, schedule: Q01DX001 (sc), vehicle: saline 110 % of control | endpoint: mean survival time, dose: 64.0 mg/kg/injection, schedule: Q04DX003 (ip), vehicle: saline 104 % of control and 112 % of control | endpoint: mean survival time, dose: 64.0 mg/kg/injection, schedule: Q04DX003 (oral), vehicle: saline 106 % of control and 120 % of control | endpoint: mean survival time, dose: 64.0 mg/kg/injection, schedule: Q## X002 (ip), vehicle: saline 118 % of control | endpoint: mean survival time, dose: 64.0 mg/kg/injection, schedule: Q## X003 (oral), vehicle: saline 117 % of control and 119 % of control | endpoint: mean survival time, dose: 72.0 mg/kg/injection, schedule: Q## X032 (ip), vehicle: saline 115 % of control and 116 % of control | endpoint: mean survival time, dose: 80.0 mg/kg/injection, schedule: Q04DX002 (ip), vehicle: saline 104 % of control | endpoint: mean survival time, dose: 96.0 mg/kg/injection, schedule: Q03DX006 (ip), vehicle: saline 102 % of control | endpoint: mean survival time, dose: 108.0 mg/kg/injection, schedule: Q## X032 (ip), vehicle: saline 101 % of control | endpoint: mean survival time, dose: 112.0 mg/kg/injection, schedule: Q01DX001 (ip), vehicle: saline 114 % of control | endpoint: mean survival time, dose: 128.0 mg/kg/injection, schedule: Q01DX001 (sc), vehicle: saline 105 % of control | endpoint: mean survival time, dose: 128.0 mg/kg/injection, schedule: Q04DX003 (oral), vehicle: saline 110 % of control | endpoint: mean survival time, dose: 128.0 mg/kg/injection, schedule: Q## X024 (ip), vehicle: saline 112 % of control | endpoint: median survival time, dose: 0.25 mg/kg/injection, schedule: Q03HX024 (ip), vehicle: water 105 % of control | endpoint: median survival time, dose: 2.0 mg/kg/injection, schedule: Q01DX009 (ip), vehicle: water 120 % of control

O=P(NC(=S)OCCN1CC1)(NC(=S)OCCN1CC1)NC(=S)OCCN1CC1
inactive: endpoint: mean survival time, dose: 100.0 mg/kg/injection, schedule: Q01DX001 (ip), vehicle: carboxymethylcellulose (CMC) 107 % of control | endpoint: mean survival time, dose: 200.0 mg/kg/injection, schedule: Q01DX001 (ip), vehicle: carboxymethylcellulose (CMC) 96 % of control

Cn1c[n+](C)ccc1=O
inactive: endpoint: mean survival time, dose: 100.0 mg/kg/injection, schedule: Q01DX009 (ip), vehicle: water 87 % of control | endpoint: mean survival time, dose: 100.0 mg/kg/injection, schedule: Q04DX003 (ip), vehicle: water 111 % of control | endpoint: mean survival time, dose: 200.0 mg/kg/injection, schedule: Q01DX009 (ip), vehicle: water 104 % of control | endpoint: mean survival time, dose: 200.0 mg/kg/injection, schedule: Q04DX003 (ip), vehicle: water 106 % of control | endpoint: mean survival time, dose: 400.0 mg/kg/injection, schedule: Q04DX003 (ip), vehicle: water 111 % of control
